Experimental data reported in PMC2064136 (The Journal of Cell Biology, 2007).

Tests used:
[1] = test system: Xenopus egg mitochondria (XEM); type: biochemical, Xenopus laevis; conditions: for concentration that protected XEM against at least 20 nM tBid: titrations in XEM supplemented with tBid (Fig. 5 A)
[2] = test system: mouse liver mitochondria (MLM); type: biochemical
[3] = test system: Bak; conditions: ref Willis et al., 2005; cited from earlier work
[4] = full-length Bcl-xL, tBid 2 h (Fig. 3)

Row | Substance | concentration protecting XEM from tBid [1, 4] [nM] | concentration that protected XEM against at least 20 nM tBid [1] [nM] | concentration protecting MLM from tBid [2, 4] [nM] | binding to Bak [3] | loss of activity relative to full-length Bcl-xL in protecting MLM from tBid ([2]; MLM, tBid (Fig. 3 B)) | relative protection of XEM from different BH3 peptides ([1]; Fig. S4) | block of the permeabilizing effect of Bad, Bmf and Hrk BH3 peptides on MLM ([2]; MLM incubated as for XEM with mBad, Bmf, Hrk BH3 peptides (Fig. 4 B))
1 | Bcl-xL: recombinant full-length human Bcl-xL | ~20 | 30 | ~20 | bind Bak | – | – | –
2 | Bcl-xLΔC24: C-terminally truncated form of human Bcl-xL | – | – | – | – | 10–30 times | – | –
3 | Mcl-1: recombinant mouse Mcl-1ΔN151ΔC11 with five additional N-terminal residues (GPLGS) | – | 300 | – | bind Bak | – | protected XEM better from the Bad than from the Bim or Puma peptides | also blocked
